Experimental data published in article PMC6627486, “Ipomoeassin F Binds Sec61α to Inhibit Protein Translocation” (Journal of the American Chemical Society, 2019).

Tests used:
Format in all cases: cell-based, human
HepG2 cells = assay: Pulse-chase analysis of protein secretion in HepG2 cells; settings: HepG2; 100 nM Ipom-F or 42 nM mycolactone 13.5 h; 100 nM bortezomib 2 h
Description: Pulse‐Chase Analysis of Protein Secretion in HepG2 Cells
The secretion assay was performed using a pulse–chase approach as described previously.20 HepG2 cells were treated with DMSO, 100 nM compound 8, 100 nM Ipom-F or […] mycolactone for 13.5 h before initiating the experiment, whereas pre-treatment with bortezomib 100 nM (Stratech) or 2.5 μg/ml brefeldin A were performed for 2 h and 1 h, respectively. Cells were starved in Met‐ and Cys‐free DMEM (Invitrogen) for 20 min at 37°C. Labeling was initiated by addition of fresh starvation medium containing […] [35S]Met and [35S]Cys protein labeling mix (Perkin Elmer; specific activity >1,000 Ci/mmol) for 15 min. After washing with PBS, cells were incubated in serum‐free DMEM supplemented with excess unlabeled L‐Met and L‐Cys (2 mM final concentration) for 2 h. The compounds were included throughout the starvation, pulse and chase. Secreted proteins in the media were recovered by precipitation with 13% trichloroacetic acid, washed in acetone and dissolved in 2x sample buffer. Cells were solubilized with Triton X‐100 lysis buffer (20 mM Tris, pH 7.5, 150 mM NaCl, 1% TX-100, 1 mM EDTA, 1 mM EGTA) supplemented with protease inhibitor cocktail and phenylmethylsulfonyl fluoride. Equal amounts

MDA-MB-231 = assay: AlamarBlue cytotoxicity assay, MDA-MB-231; settings: Homo sapiens; MDA-MB-231, 72 h, AlamarBlue; read-out: Cytotoxicity (IC50)
Description: (§1) AlamarBlue Cytotoxicity Assay
(§2) MDA-MB-231, MCF-10A and HCT116. Viable cells were counted with a hemocytometer immediately before each experiment . Experiments were done in triplicate. First, 100 μL of MDA-MB-231 cells or MCF-10A cells at the density of 50,000 cells/mL was seeded in a 96-well plate (5,000 cells/well) and then incubated at 37 °C and 5% CO2 for 24 h. The compounds were dissolved in DMSO (dimethyl sulfoxide) to make drug stocks (10 mM). The stock solutions were diluted with the complete DMEM high glucose culture medium to make a series of gradient fresh working solutions right before each test. Subsequently, the cells were treated with 100 μL of the freshly made gradient working solution in a total volume of 200 μL/well for 72 h. After that, the media were discarded and 200 μL of the fresh complete medium containing 10% of AlamarBlue (resazurin) stock solution was added to each well. The plate was then incubated at 37 °C and 5% CO2 for another 3 h. Emission of each well at 620 nm was detected by a microplate reader (BioTek Synergy H1) at excitation 580 nm. […]
(§3) Microplate Reader. The percentage of viability compared to the negative control (DMSO-treated cells) […]
(§4) was determined. […]

MCF7 = assay: MTT cytotoxicity assay, MCF7; settings: Homo sapiens; MCF7, 72 h, MTT; read-out: Cytotoxicity (IC50)
Description: Two human breast cancer cell lines (MDA-MB-231 and MCF7) and one human breast non-tumorigenic epithelial cell line (MCF-10A) were maintained in a DMEM high glucose culture medium supplemented with 10% fetal bovine serum (FBS) and 2 mM L-glutamine. The cells were grown in a humidified atmosphere of 5% CO2 and 95% air at 37 °C . The culture medi um w as changed every 2–4 days depending on cell density. Cell cultures were passaged once a week using 0.125% trypsin-EDTA to detach the cells from culture flasks/dishes.
The human colorectal cancer cell line HCT116 was maintained in McCoy’s 5A (modified) medium supplemented with 10% fetal bovine serum (FBS). The human embryonic kidney (HEK293T and HEK293 FRT TRex) cell line was maintained in DMEM high glucose culture medium supplemented with 10% fetal bovine serum (FBS).
HepG2 cells were cultured in DMEM supplemented with 10% fetal bovine serum and 2 mM L-glutamine at 37°C under 5% CO2.
Viable cells were counted with a hemocytometer immediately before each experiment. Experiments were done in triplicate. First, 100 μL of MCF7 cells at the density of 50,000 cells/mL were seeded in a 96-well plate (5,000 cells/well), which was incubated at 37 °C and 5% CO2 atmosphere for 24 h. The compounds were dissolved in DMSO (dimethyl sulfoxide) to make drug stocks (10 mM). The stock solutions were diluted with the complete DMEM high glucose culture medium to make a series of gradient fresh working solutions right before each test. Subsequently, the cells were treated with 100 μL of the freshly made gradient working solution in a total volume of 200 μL/well for 72 h. After that, the media were discarded and 200 μL of the fresh complete medium containing 10% of MTT stock solution (5 mg/mL) was added to each well. The plate was then incubated at 37 °C and 5% CO2 for 3 h. Next, 180 μL of the medium was discarded from each well , and 180 μL of DMSO was added to each well to dissol ve formazan crystals. Absorbance of formazan was detected by a microplate reader (BioTek Synergy H1) at 570 nm with 650 nm as the reference wavelength. The percentage of viability compared to the negative control (DMSO-treated cells) was determined . GraphPad Prism 6 software was used to make a plot of %

[1] = AlamarBlue cytotoxicity assay, MCF-10A; settings: human, 72 h
Description: as §1, §2, §3, §4

Compound | secretory proteins in cell media (HepG2 cells) | IC50 (MDA-MB-231) [nM] | IC50 (MCF7) [nM] | IC50 [1] [nM]
CC(C)C[C@H](NC(=O)[C@H](Cc1ccccc1)NC(=O)c1cnccn1)B(O)O [bortezomib, reference compound] | had no effect |  |  | 
C/C=C(\C)C(=O)O[C@@H]1[C@@H](O)[C@@H]2O[C@H]3[C@H](O[C@@H](CCCCC)CCCCCCC(=O)CCC(=O)OC[C@@H](O2)[C@H]1OC(=O)/C=C/c1ccc(OCc2cn(-c4cc5ccc(O)cc5oc4=O)nn2)cc1)O[C@H](C)[C@H](OC(C)=O)[C@@H]3O [compound 10] |  | 8.9 | 172 | 11.3
C/C=C(\C)C(=O)O[C@@H]1[C@@H](O)[C@@H]2O[C@H]3[C@H](O[C@@H](CCCCC)CCCCCCC(=O)CCC(=O)OC[C@@H](O2)[C@H]1OC(=O)/C=C/c1ccc(OCc2cn(CCOCCOCCOCCNc4ccc([N+](=O)[O-])c5nonc45)nn2)cc1)O[C@H](C)[C@H](OC(C)=O)[C@@H]3O [compound 11] |  | 2.8 | 21.1 | 2
C#CCOc1ccc(/C=C/C(=O)O[C@@H]2[C@@H](O)[C@@H]3O[C@H]4[C@H](O[C@@H](CCCCC)CCCCCCC(=O)CCC(=O)OC[C@@H](O3)[C@H]2OC(=O)/C(C)=C/C)O[C@H](C)[C@H](OC(C)=O)[C@@H]4O)cc1 [compound 3] |  | 6.3 | 22.2 | 9.6
